Source: US5223526A, “Pyrazole carboxanilide fungicides and use” (Monsanto Company, priority 1992, dated 1993)

Assays:
Rhizoctonia solani = assay: Rice sheath blight; assay type: in vivo; design: scale not given here; settings: inoculated two days later, rated after 7 days, average of five plants; for Disease Control Rating at 0.02 mg/mL: foliage and soil sprayed with 0.02 mg/mL; for Disease Control Rating at 0.1 mg/mL: foliage and soil sprayed with 0.1 mg/mL; for Disease Control Rating at 0.5 mg/mL: foliage and soil sprayed with 0.5 mg/mL
Procedure, shortened: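 Preventive test: R. solani inoculum on rice grain was applied at the plant base two days after spraying foliage and soil with Compound A (0.5, 0.1 or 0.02 mg/mL, water/acetone/Tween 20). Plants aged 11–15 days stood in flood trays; after 7 days at 25 °C and high humidity, disease control was rated against untreated plants, five plants averaged.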

Botrytis cinerea [1] = assay: Eggplant grey mold; assay type: in vivo; design: scale not given here; settings: inoculated 24 h later, rated after 3-4 days; for Disease Control Rating at 20 ppm: eggplant sprayed with 20 ppm; for Disease Control Rating at 100 ppm: eggplant sprayed with 100 ppm; for Disease Control Rating at 500 ppm: eggplant sprayed with 500 ppm
Procedure, shortened: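 Protective test: compound formulations (2:3 acetone:water, 0.5% Tween 20; 500, 100 or 20 ppm) sprayed on 14-18-day-old plants, with spore inoculum (4×10^6 spore/mL) applied a day later. Disease control rated on Botrytis lesions after 3-4 days at 23 °C and 100% humidity.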

succinate dehydrogenase = target: T1, succinate dehydrogenase (Botrytis cinerea, UniProt A0A384J5E4+A0A384J8V8+A0A384JHJ5); assay: Enzyme inhibition: succinate dehydrogenase activity in Botrytis cinerea mitochondria (DCPIP reduction); assay type: biochemical; settings: concentration required to inhibit the rate of DCPIP reduction by 50%; Botrytis cinerea isolate Nick mitochondria; read-out: I50 (μM conc.)
T1 construct: succinate-DCPIP reductase assay with KCN
T1 sequence (A0A384J5E4 1-300): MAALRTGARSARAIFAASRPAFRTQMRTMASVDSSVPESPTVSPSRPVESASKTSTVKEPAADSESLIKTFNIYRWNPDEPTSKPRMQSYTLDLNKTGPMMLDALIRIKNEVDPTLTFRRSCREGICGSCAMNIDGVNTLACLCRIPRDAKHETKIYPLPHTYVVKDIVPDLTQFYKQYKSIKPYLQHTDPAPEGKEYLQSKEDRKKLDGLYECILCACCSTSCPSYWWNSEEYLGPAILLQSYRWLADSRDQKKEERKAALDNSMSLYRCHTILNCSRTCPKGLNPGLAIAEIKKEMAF
T1 sequence (A0A384J8V8 1-189): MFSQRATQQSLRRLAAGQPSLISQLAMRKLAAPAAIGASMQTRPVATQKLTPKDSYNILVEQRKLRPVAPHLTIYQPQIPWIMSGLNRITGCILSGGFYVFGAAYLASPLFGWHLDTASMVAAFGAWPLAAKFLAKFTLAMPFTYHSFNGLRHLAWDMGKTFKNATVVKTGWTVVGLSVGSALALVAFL
T1 sequence (A0A384JHJ5 1-192): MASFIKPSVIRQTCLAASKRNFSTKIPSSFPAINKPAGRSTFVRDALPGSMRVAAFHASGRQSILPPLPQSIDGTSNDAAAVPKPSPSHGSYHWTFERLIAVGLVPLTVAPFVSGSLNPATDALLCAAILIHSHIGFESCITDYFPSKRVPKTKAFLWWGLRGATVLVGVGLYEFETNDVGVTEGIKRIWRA
T1 sequence (A0A384K456 1-647 partner): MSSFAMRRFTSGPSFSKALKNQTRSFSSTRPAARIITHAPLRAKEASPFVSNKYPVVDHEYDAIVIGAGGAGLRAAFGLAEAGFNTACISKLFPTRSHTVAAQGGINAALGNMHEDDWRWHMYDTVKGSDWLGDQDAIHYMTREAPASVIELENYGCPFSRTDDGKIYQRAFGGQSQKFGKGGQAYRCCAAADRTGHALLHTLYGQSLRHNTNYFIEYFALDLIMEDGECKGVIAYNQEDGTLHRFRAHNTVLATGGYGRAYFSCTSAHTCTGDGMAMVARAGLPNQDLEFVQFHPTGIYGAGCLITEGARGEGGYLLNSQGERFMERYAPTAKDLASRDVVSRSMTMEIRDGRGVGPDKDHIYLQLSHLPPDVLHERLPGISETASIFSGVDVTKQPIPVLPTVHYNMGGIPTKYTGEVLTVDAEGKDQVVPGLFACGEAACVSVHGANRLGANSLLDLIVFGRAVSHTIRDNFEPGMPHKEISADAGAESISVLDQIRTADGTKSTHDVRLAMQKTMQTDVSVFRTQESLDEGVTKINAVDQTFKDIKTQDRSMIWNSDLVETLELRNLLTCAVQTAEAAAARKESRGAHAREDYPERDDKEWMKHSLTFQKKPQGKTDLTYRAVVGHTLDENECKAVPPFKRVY
Procedure, shortened: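 DCPIP (45 μM) reduction at 600 nm tracked with 17 mM succinate, 1 mM KCN and 50 mM potassium phosphate, pH 7.2. Compounds were added in acetone (final 1% v/v), and Botrytis cinerea isolate Nick mitochondrial fraction initiated the reaction. Rates minus endogenous activity gave percentage inhibition, plotted semilog against concentration to derive I50 (μM).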

Botrytis cinerea [2] = assay: Vine grey mold (grape berries); assay type: in vivo; settings: average of six berries, 7-10 days; for pest or weed control at 50 ppm: grape berries treated with 50 ppm, read-out: % DISEASE CONTROL 50 ppm; for pest or weed control at 200 ppm: grape berries treated with 200 ppm, read-out: % DISEASE CONTROL 200 ppm
Procedure, shortened: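 Preventive berry test: compound at 50 or 200 ppm (acetone/water, 0.05% Tween 20) applied one day before inoculation with 10^6 spores/mL Botrytis conidia. After 7-10 days at 20 °C under 12 h light, infected surface area rated; disease control expressed as percent reduction from control mean; repeated-test values averaged.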

| Compound | Disease Control Rating at 0.02 mg/mL (Rhizoctonia solani) | Disease Control Rating at 0.1 mg/mL (Rhizoctonia solani) | Disease Control Rating at 0.5 mg/mL (Rhizoctonia solani) | Disease Control Rating at 20 ppm (Botrytis cinerea [1]) | Disease Control Rating at 100 ppm (Botrytis cinerea [1]) | Disease Control Rating at 500 ppm (Botrytis cinerea [1]) | IC50 (succinate dehydrogenase) | pest or weed control at 50 ppm (Botrytis cinerea [2]) | pest or weed control at 200 ppm (Botrytis cinerea [2]) |
| --- | --- | --- | --- | --- | --- | --- | --- | --- | --- |
| Cn1cc(C(=O)Nc2ccccc2C2CC(C)(C)CC(C)(C)C2)c(C(F)F)n1 [Example 140, 1H-pyrazole-4-carboxamide, 3-(difluoromethyl)-1-methyl-N-[2-(3,3,5,5-tetramethylcyclohexyl)-phenyl]-] | 0 | 2 | 3 | 0 | 1 | 1 | 0.039 µM | 16% | 12% |
| Cn1cc(C(=O)Nc2ccccc2C2CCCCC2)c(C#N)n1 [Example 4, 1H-pyrazole-4-carboxamide, 3-cyano-N-(2-cyclohexylphenyl)-1-methyl-] | – | – | 0 | 1 | 2 | 2 | 0.065 µM | 29% | 58% |
| Cn1cc(C(=O)Nc2ccccc2[C@@H]2C[C@H]3CC[C@@H]2C3)c(C(F)(F)F)n1 (relative stereo) [Example 27, 1H-pyrazole-4-carboxamide, N-(2-bicyclo[2.2.1]hept-2-ylphenyl)-1-methyl-3-(trifluoromethyl)-, exo-] | – | – | 0 | 0 | 1 | 2 | 0.0048 µM | 80% | 74% |
| O=C(Nc1ccccc1C1CCCCC1)c1cn(C(F)F)nc1C(F)F [Example 61, 1H-pyrazole-4-carboxamide, N-(2-cyclohexylphenyl)-1,3-bis(difluoromethyl)-] | – | – | 0 | – | – | 1 | 0.19 µM | 0% | 0% |
| Cn1cc(C(=O)Nc2ccccc2O[C@@H]2C[C@H]3CC[C@@H]2C3)c(C(F)F)n1 (relative stereo) [Example 80, 1H-pyrazole-4-carboxamide, N-[2-(bicyclo[2.2.1]hept-2-yloxy)-phenyl]-3-(difluoromethyl)-1-methyl-, exo-] | 2 | 3 | 3 | – | – | 0 | 0.083 µM | 0% | 0% |
| Cn1cc(C(=O)Nc2cccc(F)c2C2CCCCC2)c(C(F)F)n1 [Example 17, 1H-pyrazole-4-carboxamide, N-(2-cyclohexyl-3-fluorophenyl)-3-(difluoromethyl)-1-methyl-] | – | – | 3 | 1 | 2 | 2 | 0.0063 µM | 90% | 95% |
| Cn1cc(C(=O)Nc2ccc(F)cc2C2CCCCC2)c(C(F)(F)F)n1 [Example 12, 1H-pyrazole-4 carboxamide, N-(2-cyclohexyl-4-fluorophenyl)-1-methyl-3-(trifluoromethyl)-] | – | – | 2 | 1 | 1 | 3 | 0.0089 µM | 58% | 59% |
| Cn1cc(C(=O)Nc2ccccc2C2CCCCCCC2)c(I)n1 [Example 68, 1H-pyrazole-4-carboxamide, N-(2-cyclooctylphenyl)-3-iodo-1-methy1-] | 2 | 3 | 3 | – | – | 1 | 0.0037 µM | 78% | 89% |
| Cc1nn(C)cc1C(=O)Nc1ccccc1C1CCCC1 [Example 6, 1H-pyrazole-4-carboxamide, N-(2-cyclopentylphenyl)-1,3-dimethyl-] | 0 | 0 | 1 | – | – | 1 | 0.25 µM | 0% | 20% |
| Cn1cc(C(=O)Nc2ccccc2C2CCCCC2)c(OC(F)F)n1 [Example 59] | – | – | 0 | – | – | 0 | 1 µM | 0% | 0% |
| Cc1cccc(NC(=O)c2cn(C)nc2C(F)(F)F)c1C1CCCCC1 [Example 19, 1H-pyrazole-4-carboxamide, N-(2-cyclohexyl-3-methylphenyl)-1-methyl-3-(trifluoromethyl)-] | 1 | 3 | 3 | 1 | 2 | 3 | 0.028 µM | 32% | 52% |
| Cn1cc(C(=O)Nc2ccccc2C2CC(C)(C)CC(C)(C)C2)c(C(F)(F)F)n1 [Example 139, 1H-pyrazole-4-carboxamide, 1-methyl-N-[2-(3,3,5,5-tetramethylcyclohexyl)phenyl]-3-(trifluoromethyl)-] | 2 | 2 | 3 | 0 | 0 | 0 | 0.032 µM | 2% | 1% |
| Cn1cc(C(=O)Nc2ccccc2C2=CCC(C(C)(C)C)CC2)c(C(F)F)n1 (centres unmarked) [Example 132, 1H-pyrazole-4-carboxamide, 3-(difluoromethyl)-N-[2-[4-(1,1-dimethylethyl)-1-cyclohexen-1-yl]phenyl]-1-methyl-] | 1 | 2 | 3 | – | – | 0 | 0.0035 µM | 50% | 51% |
| CC(=C1CCCC1)c1ccccc1NC(=O)c1cn(C)nc1C(F)(F)F [Example 33, 1H-pyrazole-4-carboxamide, N-[2-(1-cyclopentylideneethyl)phenyl]-1-methyl-3-(trifluoromethyl)-] | 1 | 1 | 3 | 1 | 1 | 2 | 0.0014 µM | 34% | 41% |
| Cc1ccc(NC(=O)c2cn(C)nc2C(F)(F)F)c(C2CCCCC2)c1 [Example 29, 1H-pyrazole-4-carboxamide, N-(2-cyclohexyl-4-methylphenyl)-1-methyl-3-(trifluoromethyl)-] | – | – | 0 | – | – | 0 | 0.036 µM | 0% | 54% |
